Measured values as given in patent publication US12421253B2 (Mirati Therapeutics, Inc., priority 2020, dated 2025).

What was measured:
KRas^G12D = target: T1, KRas^G12D (Homo sapiens, UniProt P01116, G12D); experiment: KRas binding assay (TR-FRET displacement of Cy5 labelled tracer)
T1 construct: […]; biotin (biotinylated); purchased Accelegan Inc

KRas^G12R = target: T2, KRas^G12R (Homo sapiens, UniProt P01116, G12R); experiment: as above
T2 construct: […]; biotin (biotinylated); purchased Accelegan Inc
T2 sequence (P01116 1-169 isoform P01116-2 G12R): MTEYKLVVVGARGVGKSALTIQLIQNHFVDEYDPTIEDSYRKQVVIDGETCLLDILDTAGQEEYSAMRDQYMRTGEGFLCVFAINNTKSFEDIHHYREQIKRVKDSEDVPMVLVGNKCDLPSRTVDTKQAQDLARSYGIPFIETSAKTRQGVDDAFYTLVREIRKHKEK

KRas^G12V = target: T3, KRas^G12V (Homo sapiens, UniProt P01116, G12V); experiment: as above
T3 construct: […]; biotin (biotinylated); purchased Accelegan Inc
T3 sequence (P01116 1-169 isoform P01116-2 G12V): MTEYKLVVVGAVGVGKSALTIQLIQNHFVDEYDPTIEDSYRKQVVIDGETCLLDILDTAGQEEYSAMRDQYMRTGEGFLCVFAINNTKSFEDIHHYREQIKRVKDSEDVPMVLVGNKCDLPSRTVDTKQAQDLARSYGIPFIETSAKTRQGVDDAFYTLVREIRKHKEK

PSN1 cells, pERK = experiment: Inhibition of KRas phosphorylation of ERK (Cisbio HTRF Advanced pERK assay); type: cell-based; settings: Homo sapiens, PSN1, 3 h, read-out: Inhibition (HTRF IC50 nM) of KRas-mediated Phosphorylation of ERK, PSN1
Description: (§1) Inhibition of KRas Phosphorylation of ERK (HTRF) by Exemplary Compounds of Formula (I)
(§2) Cisbio HTRF Advanced pERK Assay Catalog #64AERPEH
(§3) • Day 1: Seed 6,000 cells/well −25 μl/well in 384-well white solid bottom plate; RPM1_10% FBS. […] To harvest cells from flask using 0.05% Trypsin/EDTA solution. Add 10 mL of media to stop trypsinizing. Pipette the cells into a conical bottom 50 mL centrifuge tube and centrifuge 5 min×1000 rpm. • 2. Re-suspend the cell pellet in media, take a cell count, and then adjust the cell density using fresh media. • 3. Seed 6,000 cells into cell culture plate with […]. The • 4. Incubate cell plate overnight in a 37° C., 5% CO2 incubator. Compound Titrations • 1. Use Tecan to complete the compound addition. Compounds start from 10 uM top, 3-fold dilution, and 10 doses. The final DMSO concentration is 0.8%. Dispensed 0.2 uM Trametinib as Min control. • 2. Incubate cell plate for 3 hrs in the incubator. Detection with Cisbio pERK HTRF Kit • 1. Dilute 1 volume of 4× lysis buffer with 3 volumes of deionized water. Then, add 100× the blocking reagent. Keep lysis buffer on the ice. • 2. At the end of the compound treatment, flick-off the media. • 3. Add 35 μL of lysis buffer per well using a Multidrop Combi. Then place on a plate agitator shaking at 300 rpm at 4° C. for 40 mins. • 4. Make up the HTRF antibody buffer. For each assay plate, mix 50 μL of d2-conjugate antibody with 950 μL of detection buffer. Similarly, mix 50 μL of Cryptate antibody with 950 μL of detection buffer. Then mix the two diluted antibodies together. • 5. Dispense 3.4 μL the antibody buffer to wells of an empty assay plate. Seal the plate and centrifuge plate 30 sec×1000 rpm. • 6. At the end of the 4° C. lysis, centrifuge the lysate plates 3 mins×1500 rpm. • 7. Use the Bravo to transfer 13.6 μL of lysate from cell culture plate to assay plate. Then incubate assay plate for 2 hrs at room temperature. • 8. At the end of incubation, read plate on the Envision after centrifuging plate 30 sec×1000 rpm.

ASPC1 cells, pERK = experiment: as above; type: cell-based; settings: Homo sapiens, ASPC1, 3 h, AsPC-1 cells, read-out: Inhibition (HTRF IC50 nM) of KRas-mediated Phosphorylation of ERK, AsPC-1
Description: as §1, §2, §3

H727 cells, pERK = experiment: as above; type: cell-based; settings: Homo sapiens, NCI-H727, 3 h, read-out: Inhibition (HTRF IC50 nM) of KRas-mediated Phosphorylation of ERK, H727
Description: as §1, §2, §3

MKN1 cells, pERK = experiment: as above; type: cell-based; settings: Homo sapiens, MKN-1, 3 h, read-out: Inhibition (HTRF IC50 nM) of KRas-mediated Phosphorylation of ERK, MKN1
Description: as §1, §2, §3

T1 sequence (P01116 1-169 isoform P01116-2 G12D): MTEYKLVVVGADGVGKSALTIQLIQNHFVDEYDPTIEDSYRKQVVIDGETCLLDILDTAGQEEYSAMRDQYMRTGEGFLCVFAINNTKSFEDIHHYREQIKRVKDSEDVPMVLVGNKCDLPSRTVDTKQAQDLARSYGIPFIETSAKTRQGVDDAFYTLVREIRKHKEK

IC50 (KRas^G12D)	IC50 (KRas^G12R)	IC50 (KRas^G12V)	IC50 (PSN1 cells, pERK)	IC50 (ASPC1 cells, pERK)	IC50 (H727 cells, pERK)	IC50 (MKN1 cells, pERK)	Structure (SMILES)
209 nM	118 nM	75 nM	≥ 10000 nM	3920 nM	4660 nM	1300 nM	CCc1c(F)ccc2cc(O)cc(N3CCc4c(nc(OC[C@@]56CCCN5C[C@H](F)C6)nc4N4C[C@H]5CC[C@H](O)[C@H]5C4)C3)c12 [Example 182, (3aR,4S,6aS)-2-(7-(8-ethyl-7-fluoro-3-hydroxynaphthalen-1-yl)-2-(((2R,7aS)-2-fluorohexahydro-1H-pyrrolizin-7a-yl)methoxy)-5,6,7,8-tetrahydropyrido[3,4-d]pyrimidin-4-yl)octahydrocyclopenta[c]pyrrol-4-ol]
4 nM	≤ 2 nM	≤ 2 nM	6040 nM	1170 nM	848 nM	211 nM	Oc1cc(N2CCc3c(nc(OC[C@@]45CCCN4C[C@H](F)C5)nc3N3CCCC4(CC(O)C4)C3)C2)c2c(Cl)c(F)ccc2c1 (stereo partly drawn) [Example 71, 6-(7-(8-chloro-7-fluoro-3-hydroxynaphthalen-1-yl)-2-(((2R,7aS)-2-fluorohexahydro-1H-pyrrolizin-7a-yl)methoxy)-5,6,7,8-tetrahydropyrido[3,4-d]pyrimidin-4-yl)-6-azaspiro[3.5]nonan-2-ol]
12 nM	26 nM	15 nM	≥ 10000 nM	2360 nM	4380 nM	929 nM	O=C1NCC12CCCN(c1nc(OC[C@@]34CCCN3C[C@H](F)C4)nc3c1CCN(c1cc(O)cc4ccc(F)c(Cl)c14)C3)C2 (stereo partly drawn) [Example 231, 6-(7-(8-chloro-7-fluoro-3-hydroxynaphthalen-1-yl)-2-(((2R,7aS)-2-fluorotetrahydro-1H-pyrrolizin-7a(5H)-yl)methoxy)-5,6,7,8-tetrahydropyrido[3,4-d]pyrimidin-4-yl)-2,6-diazaspiro[3.5]nonan-1-one]
101 nM	34 nM	38 nM		4890 nM	2880 nM		CN1CCC[C@H]1COc1nc2c(c(N3CCCC4(C3)NC(=O)NC4=O)n1)CCN(c1cccc3cccc(Cl)c13)C2 (stereo partly drawn) [Example 211, 9-[7-(8-chloro-1-naphthyl)-2-[[(2S)-1-methylpyrrolidin-2-yl]methoxy]-6,8-dihydro-5H-pyrido[3,4-d]pyrimidin-4-yl]-1,3,9-triazaspiro[4.5]decane-2,4-dione]
4690 nM	6430 nM	4700 nM		≥ 10000 nM	≥ 10000 nM		CN1CCC[C@H]1COc1nc2c(c(N3CCOCC(C)(O)C3)n1)CCN(c1cccc3cccc(Cl)c13)C2 (stereo partly drawn) [Example 205, 4-[7-(8-chloro-1-naphthyl)-2-[[(2S)-1-methylpyrrolidin-2-yl]methoxy]-6,8-dihydro-5H-pyrido[3,4-d]pyrimidin-4-yl]-6-methyl-1,4-oxazepan-6-ol]
579 nM	699 nM	497 nM		≥ 10000 nM	≥ 10000 nM		CN1CCC[C@H]1COc1nc2c(c(N3CCCC4(CNC(=O)N4)C3)n1)CCN(c1cccc3cccc(Cl)c13)C2 (stereo partly drawn) [Example 210, 7-(7-(8-chloronaphthalen-1-yl)-2-(((S)-1-methylpyrrolidin-2-yl)methoxy)-5,6,7,8-tetrahydropyrido[3,4-d]pyrimidin-4-yl)-1,3,7-triazaspiro[4.5]decan-2-one]

The remaining lines, values behind:

Structure (SMILES)	IC50 (KRas^G12D)	IC50 (KRas^G12R)	IC50 (KRas^G12V)	IC50 (PSN1 cells, pERK)	IC50 (ASPC1 cells, pERK)	IC50 (H727 cells, pERK)	IC50 (MKN1 cells, pERK)
Oc1cc(N2CCc3c(nc(OC[C@@]45CCCN4C[C@H](F)C5)nc3N3CC4CC(O)CC3C4)C2)c2c(Br)c(F)ccc2c1 (single isomer, unassigned) [Example 213]	11 nM	3 nM	3 nM	6500 nM			
CCc1c(F)ccc2cc(O)cc(N3CCc4c(nc(OC[C@@]56CCCN5C[C@H](F)C6)nc4N4CCCn5nncc5C4)C3)c12 [Example 178, 4-(4-(7,8-dihydro-4H-[1,2,3]triazolo[1,5-a][1,4]diazepin-5(6H)-yl)-2-(((2R,7aS)-2-fluorotetrahydro-1H-pyrrolizin-7a(5H)-yl)methoxy)-5,8-dihydropyrido[3,4-d]pyrimidin-7(6H)-yl)-5-ethyl-6-fluoronaphthalen-2-ol]	≤ 2 nM	≤ 2 nM	≤ 2 nM	7620 nM	17 nM	68 nM	20 nM
CCc1c(F)ccc2cc(O)cc(N3CCc4c(nc(OC[C@@]56CCCN5C[C@H](F)C6)nc4N4C[C@H]5C[C@@H](O)C[C@H]5C4)C3)c12 [Example 184, (3aR,5S,6aS)-2-(7-(8-ethyl-7-fluoro-3-hydroxynaphthalen-1-yl)-2-(((2R,7aS)-2-fluorohexahydro-1H-pyrrolizin-7a-yl)methoxy)-5,6,7,8-tetrahydropyrido[3,4-d]pyrimidin-4-yl)octahydrocyclopenta[c]pyrrol-5-ol]	23 nM	11 nM	12 nM	≥ 10000 nM	770 nM	796 nM	652 nM
CCc1c(F)ccc2cc(O)cc(N3CCc4c(nc(OC[C@@]56CCCN5C[C@H](F)C6)nc4N4C[C@H]5C[C@H](O)C[C@H]5C4)C3)c12 [Example 183, (3aR,5R,6aS)-2-(7-(8-ethyl-7-fluoro-3-hydroxynaphthalen-1-yl)-2-(((2R,7aS)-2-fluorohexahydro-1H-pyrrolizin-7a-yl)methoxy)-5,6,7,8-tetrahydropyrido[3,4-d]pyrimidin-4-yl)octahydrocyclopenta[c]pyrrol-5-ol]	150 nM	23 nM	54 nM	≥ 10000 nM	1540 nM	2920 nM	498 nM
Oc1cc(N2CCc3c(nc(OC[C@@]45CCCN4C[C@H](F)C5)nc3N3CC4CC(O)C(C4)C3)C2)c2c(Cl)c(F)ccc2c1 (stereo partly drawn) [Example 227, 3-(7-(8-chloro-7-fluoro-3-hydroxynaphthalen-1-yl)-2-(((2R,7aS)-2-fluorohexahydro-1H-pyrrolizin-7a-yl)methoxy)-5,6,7,8-tetrahydropyrido[3,4-d]pyrimidin-4-yl)-3-azabicyclo[3.2.1]octan-6-ol]	20 nM	6 nM	4 nM	7050 nM	4050 nM	1300 nM	524 nM
Oc1cc(N2CCc3c(nc(OC[C@@]45CCCN4C[C@H](F)C5)nc3N3CC4CC(O)CC3C4)C2)c2c(Cl)c(F)ccc2c1 (single isomer, unassigned) [Example 76]	37 nM	7 nM	7 nM	5630 nM			
CCc1c(F)ccc2cc(O)cc(N3CCc4c(nc(OC[C@@]56CCCN5C[C@H](F)C6)nc4N4C[C@H](O)C[C@@H](C(N)=O)C4)C3)c12 [Example 186, (3R,5R)-1-(7-(8-ethyl-7-fluoro-3-hydroxynaphthalen-1-yl)-2-(((2R,7aS)-2-fluorohexahydro-1H-pyrrolizin-7a-yl)methoxy)-5,6,7,8-tetrahydropyrido[3,4-d]pyrimidin-4-yl)-5-hydroxypiperidine-3-carboxamide]	≤ 2 nM	≤ 2 nM	≤ 2 nM		4360 nM	2670 nM	
CCc1c(F)ccc2cc(O)cc(N3CCc4c(nc(OC[C@@]56CCCN5C[C@H](F)C6)nc4N4CC5CCC(C4)O5)C3)c12 [Example 176, 4-(4-(8-oxa-3-azabicyclo[3.2.1]octan-3-yl)-2-(((2R,7aS)-2-fluorotetrahydro-1H-pyrrolizin-7a(5H)-yl)methoxy)-5,8-dihydropyrido[3,4-d]pyrimidin-7(6H)-yl)-5-ethyl-6-fluoronaphthalen-2-ol]	78 nM	≤ 2 nM	11 nM		5940 nM	984 nM	
